Laboratory results: PubChem BioAssay AID1259407 (Chemical Carcinogenesis Research Information System (CCRIS), 2018)
Calls of active or inactive are those of the source. How the calls were made is not given here.

Tested on: CCRIS mutagenicity, Ames/micronucleus/aberration tests
Assay: CCRIS mutagenicity studies
[1] = Test System: AMES SALMONELLA TYPHIMURIUM, Strain/Indicator: TA98, Metabolic Activation: NONE, Method: PREINCUBATION
[2] = Test System: AMES SALMONELLA TYPHIMURIUM, Strain/Indicator: TA100, Metabolic Activation: NONE, Method: PREINCUBATION
[3] = Test System: AMES SALMONELLA TYPHIMURIUM, Strain/Indicator: TA102, Metabolic Activation: NONE, Method: PREINCUBATION
[4] = Test System: AMES SALMONELLA TYPHIMURIUM, Strain/Indicator: TA1535, Metabolic Activation: NONE, Method: PREINCUBATION
[5] = Test System: AMES SALMONELLA TYPHIMURIUM, Strain/Indicator: TA98, Metabolic Activation: RAT, LIVER, S-9, AROCLOR 1254, Method: PREINCUBATION
[6] = Test System: AMES SALMONELLA TYPHIMURIUM, Strain/Indicator: TA100, Metabolic Activation: RAT, LIVER, S-9, AROCLOR 1254, Method: PREINCUBATION

O=C(O)c1ccccc1C(=O)O
mutagenic call (End Point: In vitro chromosomal aberrations, Test System: Chinese hamster ovary (CHO) cells, Metabolic Activation: None): inactive; negative
mutagenic call (End Point: In vitro chromosomal aberrations, Test System: Chinese hamster ovary (CHO) cells, Metabolic Activation: Rat, liver, S-9, Aroclor 1254, 10%): inactive; negative
mutagenic call (End Point: In vivo micronucleus, Test System: Bone marrow polychromatic erythrocytes, Species: Mouse, Strain/Sex: ICR/Male, Route: Intraperitoneal): inactive; negative
mutagenic call (Test System: AMES SALMONELLA TYPHIMURIUM, Strain/Indicator: TA97, Metabolic Activation: HAMSTER, LIVER, S-9, AROCLOR 1254, 10%, Method: PREINCUBATION): inactive; negative
mutagenic call (Test System: AMES SALMONELLA TYPHIMURIUM, Strain/Indicator: TA97, Metabolic Activation: HAMSTER, LIVER, S-9, AROCLOR 1254, 30%, Method: PREINCUBATION): inactive; negative
mutagenic call (Test System: AMES SALMONELLA TYPHIMURIUM, Strain/Indicator: TA97, Metabolic Activation: NONE, Method: PREINCUBATION): inactive; negative
mutagenic call (Test System: AMES SALMONELLA TYPHIMURIUM, Strain/Indicator: TA97, Metabolic Activation: RAT, LIVER, S-9, AROCLOR 1254, 10%, Method: PREINCUBATION): inactive; negative
mutagenic call (Test System: AMES SALMONELLA TYPHIMURIUM, Strain/Indicator: TA97, Metabolic Activation: RAT, LIVER, S-9, AROCLOR 1254, 30%, Method: PREINCUBATION): inactive; negative
mutagenic call (Test System: AMES SALMONELLA TYPHIMURIUM, Strain/Indicator: TA97, Metabolic Activation: RAT, LIVER, S-9, PHENOBARBITAL AND 5,6-BENZOFLAVONE, Method: PREINCUBATION): inactive; negative
mutagenic call (Test System: AMES SALMONELLA TYPHIMURIUM, Strain/Indicator: TA98, Metabolic Activation: HAMSTER, LIVER, S-9, AROCLOR 1254, 10%, Method: PREINCUBATION): inactive; negative
mutagenic call (Test System: AMES SALMONELLA TYPHIMURIUM, Strain/Indicator: TA98, Metabolic Activation: HAMSTER, LIVER, S-9, AROCLOR 1254,(30%, Method: PREINCUBATION): inactive; negative
mutagenic call [1]: inactive; negative
mutagenic call (Test System: AMES SALMONELLA TYPHIMURIUM, Strain/Indicator: TA98, Metabolic Activation: RAT, LIVER, S-9, AROCLOR 1254, 10%, Method: PREINCUBATION): inactive; negative
mutagenic call (Test System: AMES SALMONELLA TYPHIMURIUM, Strain/Indicator: TA98, Metabolic Activation: RAT, LIVER, S-9, AROCLOR 1254, 30%, Method: PREINCUBATION): inactive; negative
mutagenic call (Test System: AMES SALMONELLA TYPHIMURIUM, Strain/Indicator: TA98, Metabolic Activation: RAT, LIVER, S-9, PHENOBARBITAL AND 5,6-BENZOFLAVONE, Method: PREINCUBATION): inactive; negative
mutagenic call (Test System: AMES SALMONELLA TYPHIMURIUM, Strain/Indicator: TA100, Metabolic Activation: HAMSTER, LIVER, S-9, AROCLOR 1254, 10%, Method: PREINCUBATION): inactive; negative
mutagenic call (Test System: AMES SALMONELLA TYPHIMURIUM, Strain/Indicator: TA100, Metabolic Activation: HAMSTER, LIVER, S-9, AROCLOR 1254, 30%, Method: PREINCUBATION): inactive; negative
mutagenic call [2]: inactive; negative
mutagenic call (Test System: AMES SALMONELLA TYPHIMURIUM, Strain/Indicator: TA100, Metabolic Activation: RAT, LIVER, S-9, AROCLOR 1254, 10%, Method: PREINCUBATION): inactive; negative
mutagenic call (Test System: AMES SALMONELLA TYPHIMURIUM, Strain/Indicator: TA100, Metabolic Activation: RAT, LIVER, S-9, AROCLOR 1254, 30%, Method: PREINCUBATION): inactive; negative
mutagenic call (Test System: AMES SALMONELLA TYPHIMURIUM, Strain/Indicator: TA100, Metabolic Activation: RAT, LIVER, S-9, PHENOBARBITAL AND 5,6-BENZOFLAVONE, Method: PREINCUBATION): inactive; negative
mutagenic call [3]: inactive; negative
mutagenic call (Test System: AMES SALMONELLA TYPHIMURIUM, Strain/Indicator: TA102, Metabolic Activation: RAT, LIVER, S-9, PHENOBARBITAL AND 5,6-BENZOFLAVONE, Method: PREINCUBATION): inactive; negative
mutagenic call (Test System: AMES SALMONELLA TYPHIMURIUM, Strain/Indicator: TA104, Metabolic Activation: NONE, Method: PREINCUBATION): inactive; negative
mutagenic call (Test System: AMES SALMONELLA TYPHIMURIUM, Strain/Indicator: TA104, Metabolic Activation: RAT, LIVER, S-9, PHENOBARBITAL AND 5,6-BENZOFLAVONE, Method: PREINCUBATION): inactive; negative
mutagenic call (Test System: AMES SALMONELLA TYPHIMURIUM, Strain/Indicator: TA1535, Metabolic Activation: HAMSTER, LIVER, S-9, AROCLOR 1254, 10%, Method: PREINCUBATION): inactive; negative
mutagenic call (Test System: AMES SALMONELLA TYPHIMURIUM, Strain/Indicator: TA1535, Metabolic Activation: HAMSTER, LIVER, S-9, AROCLOR 1254, 30%, Method: PREINCUBATION): inactive; negative
mutagenic call [4]: inactive; negative
mutagenic call (Test System: AMES SALMONELLA TYPHIMURIUM, Strain/Indicator: TA1535, Metabolic Activation: RAT, LIVER, S-9, AROCLOR 1254 (10%), Method: PREINCUBATION): inactive; negative
mutagenic call (Test System: AMES SALMONELLA TYPHIMURIUM, Strain/Indicator: TA1535, Metabolic Activation: RAT, LIVER, S-9, AROCLOR 1254, 30%, Method: PREINCUBATION): inactive; negative
mutagenic call (Test System: Ames Salmonella typhimurium, Strain/Indicator: TA98, Metabolic Activation: None, Method: Preincubation): inactive; negative
mutagenic call (Test System: Ames Salmonella typhimurium, Strain/Indicator: TA98, Metabolic Activation: Rat, Liver, S-9, Aroclor 1254, Method: Preincubation): inactive; negative
mutagenic call (Test System: Ames Salmonella typhimurium, Strain/Indicator: TA100, Metabolic Activation: None, Method: Preincubation): inactive; negative
mutagenic call (Test System: Ames Salmonella typhimurium, Strain/Indicator: TA100, Metabolic Activation: Rat, liver, S-9, Aroclor 1254, Method: Preincubation): inactive; negative
mutagenic call (Test System: Ames Salmonella typhimurium, Strain/Indicator: TA102, Metabolic Activation: None, Method: Preincubation): inactive; negative
mutagenic call (Test System: Ames Salmonella typhimurium, Strain/Indicator: TA102, Metabolic Activation: Rat, liver, S-9, Aroclor 1254, Method: Preincubation): inactive; negative
mutagenic call (Test System: Ames Salmonella typhimurium, Strain/Indicator: TA1535, Metabolic Activation: None, Method: Preincubation): inactive; negative
mutagenic call (Test System: Ames Salmonella typhimurium, Strain/Indicator: TA1535, Metabolic Activation: Rat, liver, S-9, Aroclor 1254, Method: Preincubation): inactive; negative
mutagenic call (Test System: Ames Salmonella typhimurium, Strain/Indicator: TA1537, Metabolic Activation: None, Method: Preincubation): inactive; negative
mutagenic call (Test System: Ames Salmonella typhimurium, Strain/Indicator: TA1537, Metabolic Activation: Rat, liver, S-9, Aroclor 1254, Method: Preincubation): inactive; negative

CN(C)c1ccc(-c2ccc(N(C)C)cc2)cc1
mutagenic call [1]: inactive; negative
mutagenic call (Test System: AMES SALMONELLA TYPHIMURIUM, Strain/Indicator: TA98, Metabolic Activation: NONE, Method: STANDARD PLATE): inactive; negative
mutagenic call (Test System: AMES SALMONELLA TYPHIMURIUM, Strain/Indicator: TA98, Metabolic Activation: RAT LIVER S-9, AROCLOR 1254, Method: PREINCUBATION): active; positive
mutagenic call (Test System: AMES SALMONELLA TYPHIMURIUM, Strain/Indicator: TA98, Metabolic Activation: RAT, LIVER, S-9, AROCLOR 1254, Method: STANDARD PLATE): active; positive
mutagenic call [2]: inactive; negative
mutagenic call (Test System: AMES SALMONELLA TYPHIMURIUM, Strain/Indicator: TA100, Metabolic Activation: NONE, Method: STANDARD PLATE): inactive; negative
mutagenic call (Test System: AMES SALMONELLA TYPHIMURIUM, Strain/Indicator: TA100, Metabolic Activation: RAT LIVER S-9, AROCLOR 1254, Method: PREINCUBATION): inactive; negative
mutagenic call (Test System: AMES SALMONELLA TYPHIMURIUM, Strain/Indicator: TA100, Metabolic Activation: RAT, LIVER, S-9, AROCLOR 1254, Method: STANDARD PLATE): inactive; negative

COC(=O)C(=Cc1ccc(Br)o1)[N+](=O)[O-]
mutagenic call [1]: inactive; negative

Nc1nc2ccc(Cl)cc2[nH]1
mutagenic call [5]: inactive; negative
mutagenic call [6]: inactive; negative

CC(=O)C(C)O (stereo unspecified)
mutagenic call [1]: inactive; negative
mutagenic call [5]: inactive; negative
mutagenic call [2]: inactive; negative
mutagenic call [6]: inactive; negative
mutagenic call [3]: inactive; negative
mutagenic call (Test System: AMES SALMONELLA TYPHIMURIUM, Strain/Indicator: TA102, Metabolic Activation: RAT, LIVER, S-9, AROCLOR 1254, Method: PREINCUBATION): inactive; negative
mutagenic call [4]: inactive; negative
mutagenic call (Test System: AMES SALMONELLA TYPHIMURIUM, Strain/Indicator: TA1537, Metabolic Activation: NONE, Method: PREINCUBATION): inactive; negative
mutagenic call (Test System: AMES SALMONELLA TYPHIMURIUM, Strain/Indicator: TA1538, Metabolic Activation: NONE, Method: PREINCUBATION): inactive; negative
mutagenic call (Test System: E. COLI, Strain/Indicator: WP2 UVRA, Metabolic Activation: NONE, Method: PREINCUBATION): inactive; negative
